Measured values: patent US20240424146A1, “DRUG SCREENING METHOD AND MODEL FOR MONITORING PLATINUM-RESISTANT OVARIAN CANCER TUMOR GROWTH AND METASTASES” (THE BOARD OF REGENTS OF THE UNIVERSITY OF OKLAHOMA, priority 2023, published 2024)

Tested on: OVCAR-8 CPR Luc cells
Assay: cisplatin dose response, cell viability by MTS assay
Assay type: cell-based, human
Details: non-linear regression, FIG. 1
Description: Cells were treated with increasing doses of cisplatin and cell viability was measured using the MTS assay. IC50 values were calculated using non-linear regression analysis in GraphPad Prism software.
Next, we confirmed that these cells retained their inherent response to cisplatin. […] To determine if luciferase activity could be visualized in vitro we plated the OVCAR-8 CPR Luc cells in 2-dimensional (2D) adherent and suspended three-dimensional (3D) spheroid conditions.

N.N.[Cl][Pt][Cl] [cisplatin]
IC50 of OVCAR-8 CPR Luc cells to cisplatin relative to cisplatin-sensitive cells (OVCAR-8 Luc): twice
